In US9139568B2 (Merck Patent GmbH, priority 2011, dated 2015):

Tests used:
P70S6K = P70S6K (Homo sapiens (Human), UniProt P23443, T412E); assay: P70S6K Enzyme Assay; type: biochemical; conditions: P70S6K T412E mutant, 24 μM ATP, mobility shift (Caliper)
Experimental: P70S6K inhibitor compounds are diluted and plated in 96 well plates. […] The reaction is incubated for 90 min at 25° C., before the addition of 10 mM EDTA to stop the reaction. The proportion of substrate and product (phosphorylated) peptide is analysed on a Caliper Life Sciences Lab Chip 3000, using a pressure of −1.4 psi, and upstream and downstream voltages of −3000 and −700 respectively. Product peaks are resolved before substrate peaks on the resulting chromatograms.

AKT = AKT (Homo sapiens (Human), UniProt P31749); assay: AKT Enyzme Assay; type: biochemical; conditions: His-AKT (Full Length), 160 uM ATP, mobility shift (Caliper)
Sequence of AKT (P31749 whole entry): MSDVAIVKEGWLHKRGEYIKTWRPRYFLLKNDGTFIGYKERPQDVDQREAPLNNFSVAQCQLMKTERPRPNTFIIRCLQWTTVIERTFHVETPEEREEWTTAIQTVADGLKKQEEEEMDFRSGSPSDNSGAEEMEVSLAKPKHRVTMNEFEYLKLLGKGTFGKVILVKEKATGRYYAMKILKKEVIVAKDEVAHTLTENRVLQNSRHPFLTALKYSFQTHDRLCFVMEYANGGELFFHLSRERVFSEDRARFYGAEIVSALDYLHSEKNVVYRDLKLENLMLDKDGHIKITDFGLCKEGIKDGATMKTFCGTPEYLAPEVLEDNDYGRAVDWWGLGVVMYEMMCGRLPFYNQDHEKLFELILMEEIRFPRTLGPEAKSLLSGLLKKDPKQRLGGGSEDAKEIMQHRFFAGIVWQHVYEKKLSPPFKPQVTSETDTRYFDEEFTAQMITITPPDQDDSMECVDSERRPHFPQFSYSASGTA
Experimental: A TTP Mosquito liquid handling instrument is used to place 125 nl of the appropriate concentration of inhibitor in 100% DMSO (for a dose response curve calculation) into each well of a 384-well plate.
The reaction is incubated for 90 min at 25 C, and then stopped by the addition of 70 μl of Stop buffer (100 mM HEPES pH 7.5, 0.015% Brij-35, 10 mM EDTA (Sigma, E7889)).
The plate is read on a Caliper LC 3000 in an Off-Chip mobility shift assay format, using the following parameters for a 12-sipper chip: screening pressure −2.3 psi, upstream voltage −500, and downstream voltage −3000. These conditions cause unphosphorylated substrate and phosphorylated product peptide to resolve as separate peaks allowing direct measurement of percentage of conversion of substrate to product. The percent conversion can be plotted against concentration of inhibitor to produce a sigmoidal dose response curve, from which an IC50 can be calculated.

Sequence of P70S6K (P23443 1-421 T412E): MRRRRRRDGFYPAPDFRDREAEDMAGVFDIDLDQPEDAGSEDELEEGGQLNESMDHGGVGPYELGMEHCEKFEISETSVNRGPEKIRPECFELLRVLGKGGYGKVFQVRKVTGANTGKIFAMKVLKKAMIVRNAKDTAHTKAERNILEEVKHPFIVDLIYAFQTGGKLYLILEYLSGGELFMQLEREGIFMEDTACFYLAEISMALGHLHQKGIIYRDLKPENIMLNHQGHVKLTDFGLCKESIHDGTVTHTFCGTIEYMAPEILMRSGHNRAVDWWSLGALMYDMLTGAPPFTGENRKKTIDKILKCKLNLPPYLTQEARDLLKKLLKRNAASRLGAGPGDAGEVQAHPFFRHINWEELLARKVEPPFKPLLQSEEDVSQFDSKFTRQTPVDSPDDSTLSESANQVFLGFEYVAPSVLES

Row | Compound | IC50 (P70S6K) | IC50 (AKT)
1 | NC(=O)c1ccc(NCCc2ccc(F)c(F)c2)c2cncnc12 [Example 101, 5-[2-(3,4-difluorophenyl)ethylamino]quinazoline-8-carboxamide] | 360 nM | 41 µM
2 | NC(=O)c1ccc(NC[C@H]2CCNC2)c2cncnc12 [Example 61, (S)-5-((pyrrolidin-3-ylmethyl)amino)quinazoline-8-carboxamide] | 1700 nM | > 100 µM
3 | NC(=O)c1ccc(NC2CNCCC2c2cccc(C(F)(F)F)c2)c2cncnc12 (stereo not shown) [Example 74, 5-((4-(3-(trifluoromethyl)phenyl)piperidin-3-yl)amino)quinazoline-8-carboxamide] | 140 nM | 2.1 µM
4 | NC(=O)c1ccc(NCCCCc2ccccc2)c2cncnc12 [Example 102, 5-(4-phenylbutylamino)quinazoline-8-carboxamide] | 87 nM | > 100 µM
5 | NC(=O)c1ccc(N[C@H]2CNCC[C@@H]2c2ccc(F)c(Cl)c2)c2cncnc12 (single isomer, unassigned) [Example 77] | 50 nM | 0.85 µM
6 | NC(=O)c1ccc(N2CCN(c3cccc(F)c3)CC2)c2cncnc12 [Example 95, 5-[4-(3-fluoro-phenyl)-piperazin-1-yl]-quinazoline-8-carboxylic acid amide] | 770 nM | 6.4 µM
7 | Cc1cccc([C@@H]2CN(c3ccc(C(N)=O)c4ncncc34)C[C@H]2CO)c1 [Example 67, 5-((3S,4R)-3-(hydroxymethyl)-4-(m-tolyl)pyrrolidin-1-yl)quinazoline-8-carboxamide] | 190 nM | 8.2 µM
8 | NC(=O)c1ccc(N2CCN(c3ccccc3)CC2)c2cncnc12 [Example 91, 5-[4-phenyl-piperazin-1-yl]-quinazoline-8-carboxylic acid amide] | 3000 nM | 15 µM
9 | NC(=O)c1ccc(NCCc2ccccc2)c2cncnc12 [Example 98, 5-(phenethylamino)quinazoline-8-carboxamide] | 89 nM | 5.6 µM
10 | CNCC1CCCN(c2ccc(C(N)=O)c3ncncc23)C1 (racemic) [Example 59, 5-(3-((methylamino)methyl)piperidin-1-yl)quinazoline-8-carboxamide] | 5900 nM | 18 µM
11 | NC(=O)c1ccc(N2CCN(c3ccc(F)cc3)CC2)c2cncnc12 [Example 108, 5-[4-(4-fluorophenyl)-piperazin-1-yl]-quinazoline-8-carboxylic acid amide] | 2300 nM | > 100 µM
12 | NCC1CCCN(c2ccc(C(N)=O)c3ncncc23)C1 (racemic) [Example 56, 5-(3-(aminomethyl)piperidin-1-yl)quinazoline-8-carboxamide] | 56000 nM | > 100 µM
13 | NC(=O)c1ccc(N2CCN(c3cccc(Cl)c3)CC2)c2cncnc12 [Example 96, 5-[4-(3-chloro-phenyl)-piperazin-1-yl]-quinazoline-8-carboxylic acid amide] | 10000 nM | > 100 µM
14 | NC(=O)c1ccc(N2CCC(OCc3ccccc3)C2)c2cncnc12 (racemic) [Example 65, 5-(3-(benzyloxy)pyrrolidin-1-yl)quinazoline-8-carboxamide] | 710 nM | > 100 µM
15 | NC(=O)c1ccc(N[C@H]2CNCC[C@@H]2c2ccc(F)cc2)c2cncnc12 (single isomer, unassigned) [Example 80] | 290 nM | 2.2 µM
16 | NC(=O)c1ccc(N2CCC(NC(=O)Cc3ccccc3)C2)c2cncnc12 (racemic) [Example 47, 5-(3-(2-phenylacetamido)pyrrolidin-1-yl)quinazoline-8-carboxamide] | 7900 nM | 
17 | NC(=O)c1ccc(NC2CNC[C@@H]2C(=O)Nc2cccc(F)c2)c2cncnc12 (mixture of isomers) [Example 13, 5-((-4-((3-fluorophenyl)carbamoyl)pyrrolidin-3-yl)amino)quinazoline-8-carboxamide] | 290 nM | 
18 | NC(=O)c1ccc(N2CC[C@H](c3cccc(F)c3)[C@H](N)C2)c2cncnc12 (racemic) [Example 88, 5-[(3S,4R)-3-Amino-4-(3-fluoro-phenyl)-piperidin-1-yl]-quinazoline-8-carboxylic acid amide] | 17100 nM | 
19 | NC(=O)c1ccc(NCc2cc(F)c(F)c(F)c2)c2cccnc12 [Example 36, 5-(3,4,5-trifluorobenzylamino)-quinoline-8-carboxamide] | > 1000 nM | 
20 | NC(=O)c1ccc(NCC2(C(=O)Nc3ccccc3)CCNCC2)c2cncnc12 [Example 14, 5-(((4-(phenylcarbamoyl)piperidin-4-yl)methyl)amino)quinazoline-8-carboxamide] | > 1000 nM | 

Row | Compound | IC50 (P70S6K) | IC50 (AKT)
21 | NC(=O)c1ccc(NCc2ccc(F)c(F)c2)c2cccnc12 [Example 35, 5-(3,4-Difluorobenzylamino)-quinoline-8-carboxamide] | > 1000 nM | 
22 | Cc1ccccc1N1CCN(c2ccc(C(N)=O)c3ncncc23)CC1 [Example 120, 5-[4-(2-methyl-phenyl)-piperazin-1-yl]-quinazoline-8-carboxylic acid amide] | 980 nM | 
23 | NC(=O)c1ccc(NCc2cccc(Cl)c2)c2cccnc12 [Example 34, 5-(3-Chlorobenzylamino)-quinoline-8-carboxamide] | 140 nM | 
24 | NC(=O)c1ccc(NC2CNC[C@@H]2c2ccc(OC(F)(F)F)cc2)c2cncnc12 (mixture of isomers) [Example 1, 5-((4-(4-(trifluoromethoxy)phenyl)pyrrolidin-3-yl)amino)quinazoline-8-carboxamide] | 23 nM | 
25 | NC(=O)c1ccc(N2CCC(N)(C(=O)Nc3ccc(F)cc3)C2)c2cncnc12 (racemic) [Example 43, 5-[3-amino-3-[(4-fluorophenyl)carbamoyl]pyrrolidin-1-yl]quinazoline-8-carboxamide] | 1200 nM | 
26 | NC(=O)c1ccc(N2CCC(c3ccccc3)C(N)C2)c2cncnc12 (racemic) [Example 82, 5-(3-amino-4-phenylpiperidin-1-yl)quinazoline-8-carboxamide] | 120 nM | 
27 | NC(=O)c1ccc(N2CC[C@@H](CNC(=O)c3ccc(F)c(F)c3)C2)c2cncnc12 (single isomer, unassigned) [Example 115] | 450 nM | 
28 | NC(=O)c1ccc(N[C@@H]2CNC[C@H]2c2cccc(OC(F)(F)F)c2)c2cccnc12 (single isomer, unassigned) [Example 23] | 690 nM | 
29 | NC(=O)c1ccc(N2CCC(N)(C(=O)Nc3ccc(F)c(F)c3)C2)c2cncnc12 (racemic) [Example 44, 5-(3-amino-3-((3,4-difluorophenyl)carbamoyl)pyrrolidin-1-yl)quinazoline-8-carboxamide] | 1300 nM | 
30 | NC(=O)c1ccc(NC2CNCCC2c2ccc(C(F)(F)F)c(F)c2)c2cncnc12 (single isomer, unassigned) [Example 5] | 9.9 nM | 
31 | NC(=O)c1ccc(NC(=O)C(N)c2ccccc2)c2cccnc12 (racemic) [Example 29, 5-(2-amino-2-phenylacetamido)quinoline-8-carboxamide] | > 1000 nM | 
32 | NC(=O)c1ccc(NC2CNC[C@@H]2c2cc(F)cc(Cl)c2)c2cncnc12 (mixture of isomers) [Example 2, 5-((4-(3-chloro-5-fluorophenyl)pyrrolidin-3-yl)amino)quinazoline-8-carboxamide] | 160 nM | 
33 | NC(=O)c1ccc(NC2CNC[C@@H]2c2cccc(OC(F)(F)F)c2)c2cccnc12 (mixture of isomers) [Example 21, 5-((-4-(3-(trifluoromethoxy)phenyl)pyrrolidin-3-yl)amino)quinoline-8-carboxamide] | 22 nM | 
34 | NC(=O)c1ccc(N[C@@H]2CNCC[C@H]2c2ccc(C(F)(F)F)c(F)c2)c2cncnc12 (single isomer, unassigned) [Example 6] | 54 nM | 
35 | NC(=O)c1ccc(N2CCC(CNC(=O)c3ccc(C(F)(F)F)cc3F)C2)c2cncnc12 (racemic) [Example 55, 5-(3-((2-fluoro-4-(trifluoromethyl)benzamido)methyl)pyrrolidin-1-yl)quinazoline-8-carboxamide] | 290 nM | 
36 | NCC(c1ccc(C(F)(F)F)cc1)N1CCN(c2ccc(C(N)=O)c3ncncc23)CC1 (racemic) [Example 8, 5-(4-(2-amino-1-(4-(trifluoromethyl)phenyl)ethyl)piperazin-1-yl)quinazoline-8-carboxamide] | 210 nM | 
37 | NC(=O)c1ccc(N2CCC(CNC(=O)c3ccc(F)c(F)c3)C2)c2cncnc12 (racemic) [Example 54, 5-(3-((3,4-difluorobenzamido)methyl)pyrrolidin-1-yl)quinazoline-8-carboxamide] | 233 nM | 
38 | NC(=O)c1ccc(NCC(c2ccccc2)N2CCNCC2)c2cncnc12 (racemic) [Example 69, 5-((2-phenyl-2-(piperazin-1-yl)ethyl)amino)quinazoline-8-carboxamide] |  | 10 µM
39 | NC(=O)c1ccc(NCCc2ccccc2)c2cccnc12 [Example 40, 5-(Phenylethylamino)-quinoline-8-carboxamide] | > 1000 nM | 
40 | NC(=O)c1ccc(N2CC[C@H](c3ccc(F)cc3)[C@@H](N)C2)c2cncnc12 (racemic) [Example 87, 5-[(3R,4R)-3-Amino-4-(4-fluoro-phenyl)-piperidin-1-yl]-quinazoline-8-carboxylic acid amide] | 7100 nM | 
